Experimental data reported in publication PMC5766581, “NF-κB inducing kinase is a therapeutic target for systemic lupus erythematosus” (Nature Communications, 2018).

Tests used:
Test in all cases: SelectScreen kinase panel
Type in all cases: biochemical
EphA7 = molecular target: T1, EphA7 (Homo sapiens, UniProt Q15375)
T1 construct: purchased Invitrogen / ThermoFisher SelectScreen
Summary of the method: (§1)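 SelectScreen selectivity panel, vendor protocols per kinase: Z′-LYTE, Adapta, or LanthaScreen. Value = average % inhibition.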

ACVR1B = molecular target: T2, ACVR1B (Homo sapiens, UniProt P36896)
T2 construct: purchased Invitrogen / ThermoFisher SelectScreen
Summary of the method: as §1

Met = molecular target: T3, Met (Homo sapiens, UniProt P08581)
T3 construct: purchased Invitrogen / ThermoFisher SelectScreen
Summary of the method: as §1

SGK3 = molecular target: T4, SGK3 (Homo sapiens, UniProt Q96BR1)
T4 construct: purchased Invitrogen / ThermoFisher SelectScreen
Summary of the method: as §1

PRAK = molecular target: T5, PRAK (Homo sapiens, UniProt Q8IW41)
T5 construct: purchased Invitrogen / ThermoFisher SelectScreen
Summary of the method: as §1

Lck = molecular target: T6, Lck (Homo sapiens, UniProt P06239)
T6 construct: purchased Invitrogen / ThermoFisher SelectScreen
Summary of the method: as §1

IKK_epsilon = molecular target: T7, IKK_epsilon (Homo sapiens, UniProt Q14164)
T7 construct: purchased Invitrogen / ThermoFisher SelectScreen
Summary of the method: as §1

Cot = molecular target: T8, Cot (Homo sapiens, UniProt P41279)
T8 construct: purchased Invitrogen / ThermoFisher SelectScreen
Summary of the method: as §1

PI3K- A = molecular target: T9, PI3K- A (Homo sapiens, UniProt P42336)
T9 construct: purchased Invitrogen / ThermoFisher SelectScreen
Summary of the method: as §1

IGF1R = molecular target: T10, IGF1R (Homo sapiens, UniProt P08069)
T10 construct: purchased Invitrogen / ThermoFisher SelectScreen
Summary of the method: as §1

P38_gamma = molecular target: T11, P38_gamma (Homo sapiens, UniProt P53778)
T11 construct: purchased Invitrogen / ThermoFisher SelectScreen
Summary of the method: as §1

PKD_delta = molecular target: T12, PKD_delta (Homo sapiens, UniProt Q05655)
T12 construct: purchased Invitrogen / ThermoFisher SelectScreen
Summary of the method: as §1

MAP4K4 = molecular target: T13, MAP4K4 (Homo sapiens, UniProt O95819)
T13 construct: purchased Invitrogen / ThermoFisher SelectScreen
Summary of the method: as §1

CK1_gamma1 = molecular target: T14, CK1_gamma1 (Homo sapiens, UniProt Q9HCP0)
T14 construct: purchased Invitrogen / ThermoFisher SelectScreen
Summary of the method: as §1

LTK = molecular target: T15, LTK (Homo sapiens, UniProt P29376)
T15 construct: purchased Invitrogen / ThermoFisher SelectScreen
Summary of the method: as §1

Fgr = molecular target: T16, Fgr (Homo sapiens, UniProt P09769)
T16 construct: purchased Invitrogen / ThermoFisher SelectScreen
Summary of the method: as §1

RSK2 = molecular target: T17, RSK2 (Homo sapiens, UniProt P51812)
T17 construct: purchased Invitrogen / ThermoFisher SelectScreen
Summary of the method: as §1

PASK = molecular target: T18, PASK (Homo sapiens, UniProt Q96RG2)
T18 construct: purchased Invitrogen / ThermoFisher SelectScreen
Summary of the method: as §1

NEK1 = molecular target: T19, NEK1 (Homo sapiens, UniProt Q96PY6)
T19 construct: purchased Invitrogen / ThermoFisher SelectScreen
Summary of the method: as §1

PIM1 = molecular target: T20, PIM1 (Homo sapiens, UniProt P11309)
T20 construct: purchased Invitrogen / ThermoFisher SelectScreen
Summary of the method: as §1

CSK = molecular target: T21, CSK (Homo sapiens, UniProt P41240)
T21 construct: purchased Invitrogen / ThermoFisher SelectScreen
Summary of the method: as §1

Tie2 = molecular target: T22, Tie2 (Homo sapiens, UniProt Q02763)
T22 construct: purchased Invitrogen / ThermoFisher SelectScreen
Summary of the method: as §1

RSK3 = molecular target: T23, RSK3 (Homo sapiens, UniProt Q15349)
T23 construct: purchased Invitrogen / ThermoFisher SelectScreen
Summary of the method: as §1

PLK2 = molecular target: T24, PLK2 (Homo sapiens, UniProt Q9NYY3)
T24 construct: purchased Invitrogen / ThermoFisher SelectScreen
Summary of the method: as §1

TrkB = molecular target: T25, TrkB (Homo sapiens, UniProt Q16620)
T25 construct: purchased Invitrogen / ThermoFisher SelectScreen
Summary of the method: as §1

Flt1 = molecular target: T26, Flt1 (Homo sapiens, UniProt P17948)
T26 construct: purchased Invitrogen / ThermoFisher SelectScreen
Summary of the method: as §1

GSK3_beta = molecular target: T27, GSK3_beta (Homo sapiens, UniProt P49841)
T27 construct: purchased Invitrogen / ThermoFisher SelectScreen
Summary of the method: as §1

Aurora_B = molecular target: T28, Aurora_B (Homo sapiens, UniProt Q96GD4)
T28 construct: purchased Invitrogen / ThermoFisher SelectScreen
Summary of the method: as §1

JAK2 = molecular target: T29, JAK2 (Homo sapiens, UniProt O60674)
T29 construct: purchased Invitrogen / ThermoFisher SelectScreen
Summary of the method: as §1

Mink1 = molecular target: T30, Mink1 (Homo sapiens, UniProt Q8N4C8)
T30 construct: purchased Invitrogen / ThermoFisher SelectScreen
Summary of the method: as §1

DNA-PK = molecular target: T31, DNA-PK (Homo sapiens, UniProt P78527)
T31 construct: purchased Invitrogen / ThermoFisher SelectScreen
Summary of the method: as §1

SIK2 = molecular target: T32, SIK2 (Homo sapiens, UniProt Q9H0K1)
T32 construct: purchased Invitrogen / ThermoFisher SelectScreen
Summary of the method: as §1

TBK1 = molecular target: T33, TBK1 (Homo sapiens, UniProt Q9UHD2)
T33 construct: purchased Invitrogen / ThermoFisher SelectScreen
Summary of the method: as §1

T33 sequence (Q9UHD2 whole entry): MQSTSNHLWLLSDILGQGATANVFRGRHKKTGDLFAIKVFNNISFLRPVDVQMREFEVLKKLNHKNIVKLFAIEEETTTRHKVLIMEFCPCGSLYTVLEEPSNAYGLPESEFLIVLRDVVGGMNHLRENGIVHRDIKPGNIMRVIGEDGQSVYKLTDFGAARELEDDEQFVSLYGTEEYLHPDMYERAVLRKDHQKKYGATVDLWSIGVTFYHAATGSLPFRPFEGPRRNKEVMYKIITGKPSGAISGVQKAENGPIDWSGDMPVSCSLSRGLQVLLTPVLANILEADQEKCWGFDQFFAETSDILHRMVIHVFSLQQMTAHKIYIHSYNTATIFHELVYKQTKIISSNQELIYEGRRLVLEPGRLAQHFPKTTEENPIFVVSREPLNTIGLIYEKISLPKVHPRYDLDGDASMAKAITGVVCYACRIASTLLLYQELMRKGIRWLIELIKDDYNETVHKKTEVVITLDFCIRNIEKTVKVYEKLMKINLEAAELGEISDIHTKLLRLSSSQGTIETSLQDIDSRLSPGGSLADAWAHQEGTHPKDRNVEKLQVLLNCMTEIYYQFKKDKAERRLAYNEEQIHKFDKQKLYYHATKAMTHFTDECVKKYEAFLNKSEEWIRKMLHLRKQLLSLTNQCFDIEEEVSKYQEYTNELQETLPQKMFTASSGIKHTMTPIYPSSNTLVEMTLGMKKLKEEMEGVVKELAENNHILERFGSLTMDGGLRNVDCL
T16 sequence (P09769 whole entry): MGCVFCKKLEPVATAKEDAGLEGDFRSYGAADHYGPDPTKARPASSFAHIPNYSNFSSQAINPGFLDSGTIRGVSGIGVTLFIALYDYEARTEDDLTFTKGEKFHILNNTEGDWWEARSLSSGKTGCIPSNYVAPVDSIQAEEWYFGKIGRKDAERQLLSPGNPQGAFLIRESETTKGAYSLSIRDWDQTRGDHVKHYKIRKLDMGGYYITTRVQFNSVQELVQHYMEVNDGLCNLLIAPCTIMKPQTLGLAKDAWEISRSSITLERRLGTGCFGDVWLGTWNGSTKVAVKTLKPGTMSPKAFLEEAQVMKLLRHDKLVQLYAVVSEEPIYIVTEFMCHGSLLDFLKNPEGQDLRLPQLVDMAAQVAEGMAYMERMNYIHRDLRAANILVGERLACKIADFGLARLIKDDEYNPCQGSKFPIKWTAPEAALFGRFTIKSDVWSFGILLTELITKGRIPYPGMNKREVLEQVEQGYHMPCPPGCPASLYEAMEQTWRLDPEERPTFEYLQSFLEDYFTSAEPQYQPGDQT
T25 sequence (Q16620 32-822): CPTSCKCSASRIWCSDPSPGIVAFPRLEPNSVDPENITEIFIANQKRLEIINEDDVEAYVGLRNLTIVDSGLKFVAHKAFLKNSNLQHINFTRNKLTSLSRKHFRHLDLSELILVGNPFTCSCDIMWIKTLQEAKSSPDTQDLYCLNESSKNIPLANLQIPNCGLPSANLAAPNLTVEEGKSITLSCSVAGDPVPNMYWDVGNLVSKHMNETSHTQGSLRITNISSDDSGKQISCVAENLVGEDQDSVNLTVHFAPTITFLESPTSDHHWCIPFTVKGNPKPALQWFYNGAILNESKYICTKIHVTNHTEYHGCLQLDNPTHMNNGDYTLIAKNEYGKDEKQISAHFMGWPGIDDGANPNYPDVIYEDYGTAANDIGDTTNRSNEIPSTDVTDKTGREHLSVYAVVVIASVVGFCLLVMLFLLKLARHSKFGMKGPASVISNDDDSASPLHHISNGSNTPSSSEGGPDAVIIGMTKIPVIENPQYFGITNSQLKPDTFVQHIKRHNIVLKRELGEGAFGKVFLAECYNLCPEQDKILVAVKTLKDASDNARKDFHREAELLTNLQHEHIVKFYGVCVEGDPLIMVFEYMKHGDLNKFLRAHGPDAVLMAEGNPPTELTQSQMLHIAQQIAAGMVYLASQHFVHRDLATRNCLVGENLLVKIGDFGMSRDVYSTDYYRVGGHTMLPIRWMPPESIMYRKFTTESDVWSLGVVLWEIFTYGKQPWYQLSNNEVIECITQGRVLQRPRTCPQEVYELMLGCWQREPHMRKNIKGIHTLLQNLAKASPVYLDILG
T24 sequence (Q9NYY3 whole entry): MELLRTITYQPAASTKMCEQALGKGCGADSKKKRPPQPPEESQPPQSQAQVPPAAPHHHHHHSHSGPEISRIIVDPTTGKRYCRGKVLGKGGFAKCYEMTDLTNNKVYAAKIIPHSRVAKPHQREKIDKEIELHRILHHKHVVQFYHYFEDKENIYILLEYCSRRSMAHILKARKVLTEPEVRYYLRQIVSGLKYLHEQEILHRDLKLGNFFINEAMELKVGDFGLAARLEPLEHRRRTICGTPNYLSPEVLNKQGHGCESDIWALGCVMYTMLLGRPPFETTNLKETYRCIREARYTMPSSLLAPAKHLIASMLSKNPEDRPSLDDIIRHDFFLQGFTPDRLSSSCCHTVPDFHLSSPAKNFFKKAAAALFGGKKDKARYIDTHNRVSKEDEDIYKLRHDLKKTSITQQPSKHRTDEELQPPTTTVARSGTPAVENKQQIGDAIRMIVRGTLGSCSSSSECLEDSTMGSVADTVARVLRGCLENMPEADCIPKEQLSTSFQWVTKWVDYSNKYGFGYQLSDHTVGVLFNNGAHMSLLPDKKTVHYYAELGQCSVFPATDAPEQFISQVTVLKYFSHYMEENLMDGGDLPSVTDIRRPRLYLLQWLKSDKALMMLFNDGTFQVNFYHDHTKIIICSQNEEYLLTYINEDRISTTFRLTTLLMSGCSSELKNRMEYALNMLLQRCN
T2 sequence (P36896 24-505): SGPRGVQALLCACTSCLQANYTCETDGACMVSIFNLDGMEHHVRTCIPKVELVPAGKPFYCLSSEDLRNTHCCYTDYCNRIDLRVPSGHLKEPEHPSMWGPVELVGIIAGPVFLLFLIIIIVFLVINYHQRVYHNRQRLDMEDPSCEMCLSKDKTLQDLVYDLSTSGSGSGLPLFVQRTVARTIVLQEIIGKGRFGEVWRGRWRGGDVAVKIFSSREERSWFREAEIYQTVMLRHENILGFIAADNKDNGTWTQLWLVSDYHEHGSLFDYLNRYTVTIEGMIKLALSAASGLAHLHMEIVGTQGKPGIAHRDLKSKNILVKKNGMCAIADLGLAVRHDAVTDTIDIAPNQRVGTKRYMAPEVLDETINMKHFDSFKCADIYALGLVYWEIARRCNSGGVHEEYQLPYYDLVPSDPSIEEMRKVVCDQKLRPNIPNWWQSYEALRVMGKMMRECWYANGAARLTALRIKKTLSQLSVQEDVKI
T10 sequence (P08069 31-1367): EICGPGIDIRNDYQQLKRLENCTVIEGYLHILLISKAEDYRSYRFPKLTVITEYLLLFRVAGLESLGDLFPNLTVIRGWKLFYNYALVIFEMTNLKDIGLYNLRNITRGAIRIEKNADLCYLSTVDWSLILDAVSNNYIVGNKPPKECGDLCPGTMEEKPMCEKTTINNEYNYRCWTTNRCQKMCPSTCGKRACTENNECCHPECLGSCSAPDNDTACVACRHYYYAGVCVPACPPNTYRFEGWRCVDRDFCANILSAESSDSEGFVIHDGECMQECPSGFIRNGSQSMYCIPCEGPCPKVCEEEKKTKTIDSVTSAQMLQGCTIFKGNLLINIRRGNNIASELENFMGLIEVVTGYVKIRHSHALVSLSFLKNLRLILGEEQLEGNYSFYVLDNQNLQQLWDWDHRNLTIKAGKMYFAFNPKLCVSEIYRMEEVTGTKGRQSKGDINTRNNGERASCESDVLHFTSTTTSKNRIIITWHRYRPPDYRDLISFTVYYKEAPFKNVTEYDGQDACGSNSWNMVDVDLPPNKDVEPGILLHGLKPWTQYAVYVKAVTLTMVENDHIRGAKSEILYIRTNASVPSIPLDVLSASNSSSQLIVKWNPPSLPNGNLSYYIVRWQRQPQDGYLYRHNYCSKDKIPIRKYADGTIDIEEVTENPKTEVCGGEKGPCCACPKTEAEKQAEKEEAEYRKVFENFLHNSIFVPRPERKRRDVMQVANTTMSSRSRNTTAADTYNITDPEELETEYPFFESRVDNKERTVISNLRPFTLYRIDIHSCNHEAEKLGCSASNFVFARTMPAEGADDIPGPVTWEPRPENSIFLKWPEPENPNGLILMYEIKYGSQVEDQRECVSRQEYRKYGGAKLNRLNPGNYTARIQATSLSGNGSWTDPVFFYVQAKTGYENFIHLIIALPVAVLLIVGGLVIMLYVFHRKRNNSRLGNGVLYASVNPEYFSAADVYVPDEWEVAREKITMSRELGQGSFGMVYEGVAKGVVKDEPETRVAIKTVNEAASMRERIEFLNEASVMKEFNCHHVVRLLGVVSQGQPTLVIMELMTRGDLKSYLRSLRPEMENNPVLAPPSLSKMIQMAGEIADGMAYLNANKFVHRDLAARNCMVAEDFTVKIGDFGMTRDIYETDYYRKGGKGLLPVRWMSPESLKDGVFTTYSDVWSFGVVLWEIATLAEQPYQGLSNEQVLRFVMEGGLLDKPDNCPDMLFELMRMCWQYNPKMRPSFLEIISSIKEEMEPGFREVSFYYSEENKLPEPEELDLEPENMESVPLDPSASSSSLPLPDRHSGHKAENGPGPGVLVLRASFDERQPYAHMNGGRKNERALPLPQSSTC
T4 sequence (Q96BR1 whole entry): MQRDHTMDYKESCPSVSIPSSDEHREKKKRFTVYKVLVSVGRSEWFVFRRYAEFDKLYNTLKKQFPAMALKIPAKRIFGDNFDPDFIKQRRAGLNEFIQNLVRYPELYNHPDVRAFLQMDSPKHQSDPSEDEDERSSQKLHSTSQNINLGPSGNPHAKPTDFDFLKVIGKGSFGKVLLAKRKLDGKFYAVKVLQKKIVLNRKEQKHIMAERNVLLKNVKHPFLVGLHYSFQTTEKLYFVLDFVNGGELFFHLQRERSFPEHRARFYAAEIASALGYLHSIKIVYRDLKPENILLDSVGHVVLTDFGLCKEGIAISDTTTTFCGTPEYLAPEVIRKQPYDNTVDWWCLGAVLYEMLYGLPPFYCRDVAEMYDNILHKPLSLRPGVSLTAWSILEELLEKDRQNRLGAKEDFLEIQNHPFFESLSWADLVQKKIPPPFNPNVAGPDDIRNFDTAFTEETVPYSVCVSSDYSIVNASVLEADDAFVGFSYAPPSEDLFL

COc1cc(C(N)=O)nc(-c2cccc(C#C[C@]3(O)CCN(C)C3=O)c2)c1 [NIK SMI1]
inhibition at 1 µM (EphA7): 5.1% | inhibition at 1 µM (ACVR1B): 2% | inhibition at 1 µM (Met): 0% | inhibition at 1 µM (SGK3): -0.5% | inhibition at 1 µM (PRAK): 6% | inhibition at 1 µM (Lck): 0.5% | inhibition at 1 µM (IKK_epsilon): 19% | inhibition at 1 µM (Cot): 34.5% | inhibition at 1 µM (PI3K- A): -7.5% | inhibition at 1 µM (IGF1R): 8.5% | inhibition at 1 µM (P38_gamma): 14% | inhibition at 1 µM (PKD_delta): 1.5% | inhibition at 1 µM (MAP4K4): 45.5% | inhibition at 1 µM (CK1_gamma1): 2.5% | inhibition at 1 µM (LTK): -1% | inhibition at 1 µM (Fgr): 8% | inhibition at 1 µM (RSK2): 7% | inhibition at 1 µM (PASK): 16% | inhibition at 1 µM (NEK1): 31.5% | inhibition at 1 µM (PIM1): -0.5% | inhibition at 1 µM (CSK): 12.5% | inhibition at 1 µM (Tie2): 6% | inhibition at 1 µM (RSK3): 5% | inhibition at 1 µM (PLK2): 4% | inhibition at 1 µM (TrkB): -3.5% | inhibition at 1 µM (Flt1): 7% | inhibition at 1 µM (GSK3_beta): 5% | inhibition at 1 µM (Aurora_B): 24.5% | inhibition at 1 µM (JAK2): 8.5% | inhibition at 1 µM (Mink1): 53.5% | inhibition at 1 µM (DNA-PK): -4% | inhibition at 1 µM (SIK2): 5.5% | inhibition at 1 µM (TBK1): 26.5%
